Test results from ChEMBL document CHEMBL3507680, “University of Dundee, Gates Library screen for HepG2 cell viability”.

Experiment: Human HepG2 cell viability assay in 384 well format
Format: toxicity, cell-based
Parameters: dose 125 nL, time 70.5 hour; cytotoxicity at 70.5 h: concentration not given beside the values
Conditions: HepG2 cells, read-out: Inhibition

Row | Compound | cytotoxicity at 70.5 h
1 | Cc1ccc(N2CCCc3sc(C(=O)NCc4cccnc4)nc32)nn1 | -10.4%
2 | Cc1nn(CC(C)C)c(N(C)C)c1CNCc1ccc2c(c1)OCO2 | -2.13%
3 | CC(C)CCN(C)C(=O)c1cc(CN2CCC(O)CC2)on1 | -0.516%
4 | CCOc1ncccc1CNC(=O)Nc1ccc(OC)c(OC)c1 | -5.39%
5 | O=C(C1CC(=O)N(c2n[nH]c3cc(Br)ccc23)C1)N1CCSCC1 (stereo unspecified) | -9.09%
6 | Cc1noc(C)c1CN1C(=O)[C@H]2CC[C@@H]1CN(C(=O)c1cscn1)C2 | -2.09%
7 | CCC[C@@H]1CN(Cc2cnc3c(S(C)(=O)=O)cnn3c2)C[C@H]1N(C)C | -7.08%
8 | CO[C@H]1C[C@@H]2CN(C(=O)c3cc4cccc(F)c4[nH]3)C[C@@H]2C1 | -6.67%
9 | OC1(CNCCSc2ccccn2)CNCCOC1 (stereo unspecified) | 1.38%
10 | CN1CCCN(C(=O)c2cccc(S(=O)(=O)NCC3(C)COC3)c2)CC1 | -0.00641%
11 | CNC(=O)C1Cn2ccnc2C2(CCN(C(=O)NC3CCCC3)CC2)O1 (stereo unspecified) | -9.83%
12 | Cc1ncnc2c1CCN(CC(=O)N(C)C)CC2 | -5.19%
13 | CC(=O)N1CCCC(c2nc(N(C)C)ncc2-c2cccc(F)c2)C1 (stereo unspecified) | 3.21%
14 | O=C1CCC(=O)c2oc3ccc(Cl)cc3c2N1 | -14%
15 | OC1CCN(c2ccccc2NCc2nc(-c3cccs3)no2)CC1 | -10.7%
16 | CCCn1c(C)cc(C(=O)CN2C(=O)c3ccccc3CS2(=O)=O)c1C | -10.8%
17 | Cc1ccc2nc(CNc3ccccc3C(=O)NC3CC3)cn2c1 | -4.35%
18 | Cc1nccn1-c1cc(CNS(=O)(=O)N2CCCC(C)C2)ccn1 (stereo unspecified) | 18%
19 | CCCNC(=O)C(C)Oc1ccccc1 (stereo unspecified) | -5.34%
20 | Cc1nn(C)c2nc(C3CC3)c(Cl)c(C(=O)O)c12 | 0.618%
21 | CN(C)C(=O)Cc1nc(CN2CCOC(Cn3cccn3)C2)cs1 (stereo unspecified) | 1.45%

Row | Compound | cytotoxicity at 70.5 h
22 | Cc1nccn1CC(=O)N1CC(Cc2nccc3ccn(C)c23)C1 | -9.67%
23 | CN(Cc1ccc(-n2cccn2)cc1)CC1CCCN1c1cccnn1 (stereo unspecified) | -10.7%
24 | CN1CCC2(CCCN(c3nccc(C(F)(F)F)n3)C2)CC1 | -11.3%
25 | COc1ccc(-c2csc3c2c(N)nc(=O)n3CC(N)=O)cc1 | -14.6%
26 | CCN1C[C@H]2CCN(c3ncccn3)CC[C@H]2S1(=O)=O | 1.89%
27 | CCS(=O)(=O)N1CCC2(CN(C(=O)c3cscn3)C2)C1 | -3.48%
28 | Cc1cccc(CN2CCCC[C@H]3CN(c4ncccn4)C[C@H]32)c1 | 5.5%
29 | CCN1CCCc2cc(-c3cncn3C(C)CN3CCOCC3)ccc21 (stereo unspecified) | -4.04%
30 | CCN1CCCN(C(=O)c2ccc(NC(=O)CC(C)C)c(C)c2)CC1 | -12.9%
31 | Cc1cnn(CCNCC(=O)NCCOc2ccc(F)cc2)c1 | -9.5%
32 | O=C(Nc1ccccc1)c1ccc(NCc2ccccc2CO)nn1 | -6.13%
33 | Cc1nc(CN2CCOC(CNc3cccnn3)C2)cs1 (stereo unspecified) | 2.31%
34 | CN(C)c1cc2c(nn1)CCN(C(=O)Cc1noc3ccccc13)C2 | 9.27%
35 | O=C(NCCn1ccnc1)N1CCCN(Cc2cccs2)CC1 | -9.01%
36 | O=C([C@@H]1C[C@@H]2CCN(Cc3ccoc3)C[C@H]2O1)N1CCCC1 | -2.05%
37 | Cc1cc(C(=O)N2CCCC(c3nccn3Cc3cscn3)C2)on1 (stereo unspecified) | -6.42%
38 | O=C(C1CCCC1)N1CCOc2cccc(F)c21 | -7.17%
39 | Cc1cc(C)n(-c2ccc(N3CCC4(CC3)OCC(C)O4)nc2)n1 (stereo unspecified) | -8.82%
40 | CN1CCN2CCN(C(=O)c3cnn4cc(CCO)cnc34)CC2C1 (stereo unspecified) | -8.48%
41 | CCN(CC)CCCC(C)NC(=O)c1ccccc1-n1cccn1 (stereo unspecified) | -9.46%
42 | CCOCCC(=O)N1CCCN(c2ccccc2C)CC1 | -4.5%

Row | Compound | cytotoxicity at 70.5 h
43 | CC(=O)N1CCC(c2cncc(N3CCCC(O)C3)n2)CC1 (stereo unspecified) | -4.12%
44 | CC(=O)N1CCC2(C=C(C(=O)NC3CC3)c3ccccc32)CC1 | -13.7%
45 | COc1ccc(C2(CNC(C)c3nnc(C)o3)CCCCC2)cc1 (stereo unspecified) | -8.26%
46 | O=C(Nc1ccc(-c2ccccc2)cn1)C1CCCN1C(=O)C1CC1 (stereo unspecified) | 5.65%
47 | Cc1nc(C(C)Nc2nc3c(s2)c(C)nn3C)n[nH]1 (stereo unspecified) | 15.8%
48 | Cc1nnc(CN(Cc2ccc(Cl)c(Cl)c2)C2CC2)o1 | -3.07%
49 | CC(C)CCN1CCN(CC(=O)Nc2ccc3nsnc3c2)CC1 | -11.4%
50 | COC1CCN(C(=O)CC2CCCC2)CC(=O)N(C)c2ccccc21 (stereo unspecified) | -0.0141%
51 | CC(CN1CCOCC1)NC(=O)N1CCCC1 (stereo unspecified) | -3.6%
52 | O=C(c1cc[nH]n1)N1CCCC1c1cncc(CN2CCOCC2)n1 (stereo unspecified) | -4.87%
53 | CN1CCCN(S(=O)(=O)c2cccc(C(=O)N3CCCCCC3)c2)CC1 | -7.86%
54 | Fc1cccc(CN2CCC3(CCCN3c3ncccn3)CC2)c1 | 5.31%
55 | O=C(NCC1CC1)[C@H]1C[C@@H]2CCN(CCc3ccccc3)C[C@H]2O1 | -4.59%
56 | Fc1cccnc1O[C@@H]1CN(Cc2ccccn2)[C@@H]2CCCO[C@@H]21 | -10.3%
57 | O=C([C@H](O)c1ccccc1)N1CCN(c2cccc(Cl)c2)C(=O)C1 | 13.8%
58 | Cc1cnccc1CCNC(=O)Nc1cnc(N(C)C)nc1 | 25.9%
59 | CCn1nc(C)c2ncnc(NCC(=O)N3CCOCC3)c21 | -11.2%
60 | O=C(NCC(O)COc1ccc(C(F)(F)F)cc1)Nc1nncs1 (stereo unspecified) | -12.1%
61 | O=C1CC(c2ccc(F)cc2)Cc2[nH]c(=O)c(C(=O)O)cc21 (stereo unspecified) | -8.55%
62 | COCCc1ncc(CN2C[C@@H](C(=O)O)[C@H](C(C)C)C2)cn1 | 14.1%
63 | CN(C)c1cnn(Cc2nc3ccccc3n2C)c(=O)c1 | -12.8%

Row | Compound | cytotoxicity at 70.5 h
64 | Cc1nc(C)n(CC2CCCN2Cc2nc(-c3ccccn3)no2)n1 (stereo unspecified) | -7.25%
65 | CCCc1cc(NC2CCc3ncnn3C2)n2ncnc2n1 (stereo unspecified) | 0.783%
66 | CCc1nnc2n1CCN(Cc1nc(-c3ccoc3)no1)C2 | -7.66%
67 | CN(C)C(=O)c1cn[nH]c1C1CCCN1Cc1nccn1C (stereo unspecified) | 22.5%
68 | CN(C)S(=O)(=O)NCc1cccnc1Oc1ccccc1 | -6.53%
69 | O=C(NCCCSc1ccc(F)cc1)C1CCc2cn[nH]c2C1 (stereo unspecified) | -4.46%
70 | CCC(C)NC(=O)c1nn(C)c(NC(=O)c2ccccc2OC)c1F (stereo unspecified) | -10.8%
71 | Cc1cc(C)nc(NCCSc2cnn[nH]2)n1 | -2%
72 | CC(C)c1cc(NCC(C)N2CCCC2)n2nccc2n1 (stereo unspecified) | -10.1%
73 | Cc1cccc(C(=O)N2CCCn3c(CN4CCCCC4)nnc3C2)c1 | -11.1%
74 | Cc1csc(C2CCCCN2C(=O)COCc2nc(C)no2)n1 (stereo unspecified) | -4.26%
75 | COCc1nc(C)cc(Nc2ccc3c(c2)CC(=O)N3)n1 | -7.41%
76 | CNc1cc(N2CCCC2CNCc2cccnc2C)ncn1 (stereo unspecified) | 4.98%
77 | CNCc1nc(-c2ccc3c(c2)OCO3)c[nH]1 | -13.6%
78 | CC(C)(C)c1cc(C[C@H]2CNCC[C@H]2CC(=O)Nc2ccccc2)no1 | -2.1%
79 | CSCc1nc(CCNC(=O)C2CCCN(C(C)=O)C2)cs1 (stereo unspecified) | -2.37%
80 | COCCCNC(=O)CN1CCC(N2CCN(C)C2=O)CC1 | -10.4%
81 | COCCNC(=O)Nc1ccn(-c2cccc(C(F)(F)F)c2)n1 | 9.44%
